Measurements as given in ChEMBL document CHEMBL4152193, “Phthalimide conjugations for the degradation of oncogenic PI3K” (Eur J Med Chem, 2018).
Blank lines part the entries; values can stand above or below the molecule they belong to. Active and inactive are the calls of the source. The calls are words filed in the database; no cut-off is given here.

Experiments:
[1] = target: Phosphatidylinositol 4,5-bisphosphate 3-kinase catalytic subunit alpha isoform (Homo sapiens, UniProt P42336); assay: Inhibition of PI3Kalpha (unknown origin) using PIP2 as substrate after 1 hr by Kinase-Glo luminescent kinase assay
HepG2 [2] = assay: Antiproliferative activity against human HepG2 cells at 1 to 50 uM after 48 hrs by MTT assay; assay type: functional, cell-based
[3] = target: T1, Protein cereblon-pI3K (Homo sapiens) (UniProt P42338+P48736+P42336+O00329+Q96SW2); assay: Protac activity against PI3K/E3 ligase in human HepG2 cells assessed as reduction in Akt phosphorylation at Ser-473 residue in human HepG2 cells after 24 hrs by Western blot analysis; assay type: cell-based
[4] = target: T1, Protein cereblon-pI3K (Homo sapiens); assay: Protac activity against PI3K/E3 ligase in human HepG2 cells assessed as reduction in phosphorylated S6K protein level in human HepG2 cells after 24 hrs by Western blot analysis; assay type: cell-based
[5] = target: T1, Protein cereblon-pI3K (Homo sapiens); assay: Protac activity against PI3K/E3 ligase in human HepG2 cells assessed as reduction in phosphorylated GSK3beta protein level at 10 uM in human HepG2 cells by Western blot analysis; assay type: cell-based; details: TDE = time-dependent effect
[6] = target: T1, Protein cereblon-pI3K (Homo sapiens); assay: Protac activity against PI3K/E3 ligase in human HepG2 cells assessed as reduction in cyclin D1 protein level at 10 uM in human HepG2 cells by Western blot analysis; assay type: cell-based; details: TDE = time-dependent effect
[7] = target: T1, Protein cereblon-pI3K (Homo sapiens); assay: Protac activity against PI3K/E3 ligase in human HepG2 cells assessed as increase in conversion of LC3B-1 to LC3B-2 at 10 uM after 3 hrs in human HepG2 cells by Western blot analysis; assay type: cell-based
HepG2 [8] = assay: Induction of apoptosis in human HepG2 cells assessed as necrotic cells at 5 uM after 24 hrs by Annexin V-FITC/propidium iodide staining-based flow cytometric analysis (reference value: 0.052%); assay type: functional
HepG2 [9] = assay: Induction of apoptosis in human HepG2 cells assessed as late apoptotic cells at 5 uM after 24 hrs by Annexin V-FITC/propidium iodide staining-based flow cytometric analysis (reference value: 7.34%); assay type: functional
HepG2 [10] = assay: Induction of apoptosis in human HepG2 cells assessed as early apoptotic cells at 5 uM after 24 hrs by Annexin V-FITC/propidium iodide staining-based flow cytometric analysis (reference value: 2.46%); assay type: functional
HepG2 [11] = assay: Induction of apoptosis in human HepG2 cells assessed as viable cells at 5 uM after 24 hrs by Annexin V-FITC/propidium iodide staining-based flow cytometric analysis (reference value: 90.1%); assay type: functional; details: HepG2, 24 h, read-out: Activity
HepG2 [12] = assay: Induction of apoptosis in human HepG2 cells assessed as necrotic cells at 10 uM after 24 hrs by Annexin V-FITC/propidium iodide staining-based flow cytometric analysis (reference value: 0.052%); assay type: functional
HepG2 [13] = assay: Induction of apoptosis in human HepG2 cells assessed as late apoptotic cells at 10 uM after 24 hrs by Annexin V-FITC/propidium iodide staining-based flow cytometric analysis (reference value: 7.34%); assay type: functional
HepG2 [14] = assay: Induction of apoptosis in human HepG2 cells assessed as early apoptotic cells at 10 uM after 24 hrs by Annexin V-FITC/propidium iodide staining-based flow cytometric analysis (reference value: 2.46%); assay type: functional
HepG2 [15] = assay: Induction of apoptosis in human HepG2 cells assessed as viable cells at 10 uM after 24 hrs by Annexin V-FITC/propidium iodide staining-based flow cytometric analysis (reference value: 90.1%); assay type: functional; details: HepG2, 24 h, read-out: Activity
HepG2 [16] = assay: Induction of apoptosis in human HepG2 cells assessed as necrotic cells at 25 uM after 24 hrs by Annexin V-FITC/propidium iodide staining-based flow cytometric analysis (reference value: 0.052%); assay type: functional
HepG2 [17] = assay: Induction of apoptosis in human HepG2 cells assessed as late apoptotic cells at 25 uM after 24 hrs by Annexin V-FITC/propidium iodide staining-based flow cytometric analysis (reference value: 7.34%); assay type: functional
HepG2 [18] = assay: Induction of apoptosis in human HepG2 cells assessed as early apoptotic cells at 25 uM after 24 hrs by Annexin V-FITC/propidium iodide staining-based flow cytometric analysis (reference value: 2.46%); assay type: functional
HepG2 [19] = assay: Induction of apoptosis in human HepG2 cells assessed as viable cells at 25 uM after 24 hrs by Annexin V-FITC/propidium iodide staining-based flow cytometric analysis (reference value: 90.1%); assay type: functional; details: HepG2, 24 h, read-out: Activity
HepG2 [20] = assay: Cell cycle arrest in human HepG2 cells assessed as accumulation at G0/G1 phase at 5 uM after 24 hrs by flow cytometric analysis (reference value: 86.6%); assay type: functional
HepG2 [21] = assay: Cell cycle arrest in human HepG2 cells assessed as accumulation at S phase at 5 uM after 24 hrs by flow cytometric analysis (reference value: 3.77%); assay type: functional
HepG2 [22] = assay: Cell cycle arrest in human HepG2 cells assessed as accumulation at G2/M phase at 5 uM after 24 hrs by flow cytometric analysis (reference value: 9.25%); assay type: functional
HepG2 [23] = assay: Cell cycle arrest in human HepG2 cells assessed as accumulation at G0/G1 phase at 10 uM after 24 hrs by flow cytometric analysis (reference value: 86.6%); assay type: functional
HepG2 [24] = assay: Cell cycle arrest in human HepG2 cells assessed as accumulation at S phase at 10 uM after 24 hrs by flow cytometric analysis (reference value: 3.77%); assay type: functional
HepG2 [25] = assay: Cell cycle arrest in human HepG2 cells assessed as accumulation at G2/M phase at 10 uM after 24 hrs by flow cytometric analysis (reference value: 9.25%); assay type: functional
HepG2 [26] = assay: Cell cycle arrest in human HepG2 cells assessed as accumulation at G0/G1 phase at 25 uM after 24 hrs by flow cytometric analysis (reference value: 86.6%); assay type: functional
HepG2 [27] = assay: Cell cycle arrest in human HepG2 cells assessed as accumulation at S phase at 25 uM after 24 hrs by flow cytometric analysis (reference value: 3.77%); assay type: functional
HepG2 [28] = assay: Cell cycle arrest in human HepG2 cells assessed as accumulation at G2/M phase at 25 uM after 24 hrs by flow cytometric analysis (reference value: 9.25%); assay type: functional
HepG2 [29] = assay: Induction of autophagy in GFP-LC3 transfected human HepG2 cells assessed as increase in LC3 puncta at 10 uM after 6 hrs by DAPI staining-based fluorescence microscopy; assay type: functional, cell-based
HepG2 [30] = assay: Antiproliferative activity against human HepG2 cells assessed as inhibition of cell proliferation at 10 uM after 48 hrs by MTT assay; assay type: functional; details: HepG2, 48 h
[31] = target: T1, Protein cereblon-pI3K (Homo sapiens); assay: Protac activity against PI3K/E3 ligase in human HepG2 cells assessed as induction of p110alpha protein degradation at 10 uM in human HepG2 cells by Western blot analysis; assay type: cell-based

SMILES: O=C1CCC(N2C(=O)c3cccc(NC(=O)CCCCCN4CCN(c5nc(N6CCOCC6)nc(-n6c(C(F)F)nc7ccccc76)n5)CC4)c3C2=O)C(=O)N1 (stereo unspecified)
- IC50 [1]: 2850 nM

SMILES: O=C1CCC(N2C(=O)c3cccc(NC(=O)CCCn4cc(CN5CCN(c6nc(N7CCOCC7)nc(-n7c(C(F)F)nc8ccccc87)n6)CC5)nn4)c3C2=O)C(=O)N1 (stereo unspecified)
- IC50 [1]: 90 nM
- Activity (HepG2 [2]): Dose-dependent effect
- Activity [3]: Dose-dependent effect
- Activity [4]: Dose-dependent effect
- Activity [5]: Tde
- Activity [6]: Tde
- Activity [7]: Active
- inhibition at 10 µM (HepG2 [30]): ≤ 50%
- Activity [31]: < 50%

SMILES: O=C1CCC(N2C(=O)c3cccc(NC(=O)CCCCCn4cc(CN5CCN(c6nc(N7CCOCC7)nc(-n7c(C(F)F)nc8ccccc87)n6)CC5)nn4)c3C2=O)C(=O)N1 (stereo unspecified)
- IC50 [1]: 86 nM
- Activity (HepG2 [2]): Dose-dependent effect
- Activity [3]: Dose-dependent effect
- Activity [4]: Dose-dependent effect
- Activity [5]: Tde
- Activity [6]: Tde
- Activity [7]: Active
- inhibition at 10 µM (HepG2 [30]): ≤ 50%
- Activity [31]: < 50%

Now from value to molecule, other results behind:

- IC50 [1]: 24 nM
- Activity [3]: Dose-dependent effect
- Activity [4]: Dose-dependent effect
- Activity [5]: Tde
- Activity [6]: Tde
- Activity [7]: Active
- Activity [31]: < 50%
SMILES: O=C(CCC(=O)N1CCN(c2nc(N3CCOCC3)nc(-n3c(C(F)F)nc4ccccc43)n2)CC1)NCCCCCC(=O)Nc1cccc2c1C(=O)N(C1CCC(=O)NC1=O)C2=O (stereo unspecified)
- Activity (HepG2 [2]): Dose-dependent effect
- Activity (HepG2 [8]): 0.152%
- Activity (HepG2 [9]): 17.9%
- Activity (HepG2 [10]): 10.3%
- viability at 5 µM (HepG2 [11]): 71.7%
- Activity (HepG2 [12]): 0.4%
- Activity (HepG2 [13]): 19.3%
- Activity (HepG2 [14]): 14.7%
- viability at 10 µM (HepG2 [15]): 65.6%
- Activity (HepG2 [16]): 0.426%
- Activity (HepG2 [17]): 20.4%
- Activity (HepG2 [18]): 10.3%
- viability at 25 µM (HepG2 [19]): 68.9%
- Activity (HepG2 [20]): 85.6%
- Activity (HepG2 [21]): 3.79%
- Activity (HepG2 [22]): 9.99%
- Activity (HepG2 [23]): 85.6%
- Activity (HepG2 [24]): 3.49%
- Activity (HepG2 [25]): 10.5%
- Activity (HepG2 [26]): 81.3%
- Activity (HepG2 [27]): 5.73%
- Activity (HepG2 [28]): 12.9%
- Activity (HepG2 [29]): Active
- inhibition at 10 µM (HepG2 [30]): ≤ 50%

- IC50 [1]: 18 nM
- Activity [3]: Dose-dependent effect
- Activity [4]: Dose-dependent effect
- Activity [5]: Tde
- Activity [6]: Tde
- Activity [7]: Active
- Activity [31]: < 50%
SMILES: O=C(CCC(=O)N1CCN(c2nc(N3CCOCC3)nc(-n3c(C(F)F)nc4ccccc43)n2)CC1)NCCCC(=O)Nc1cccc2c1C(=O)N(C1CCC(=O)NC1=O)C2=O (stereo unspecified)
- Activity (HepG2 [2]): Dose-dependent effect
- inhibition at 10 µM (HepG2 [30]): ≤ 50%

- IC50 [1]: 38 nM
SMILES: O=C(CCC(=O)NCCCC(=O)Nc1cccc2c1C(=O)N(C1CCC(=O)NC1=O)C2=O)NCCCCCC(=O)N1CCN(c2nc(N3CCOCC3)nc(-n3c(C(F)F)nc4ccccc43)n2)CC1 (stereo unspecified)
- Activity (HepG2 [2]): inactive
